Source: patent US20250188492A1, “Enhanced Transfer of Genetic Instructions to Effector Immune Cells” (Janssen Biotech, Inc., priority 2022, published 2025)

Columns and labels:
Assay type in all cases: cell-based
[1] = tested on: primary NK cells; experiment: Surface CAR expression of primary NK cells transduced with Antigen-1 CAR lentivirus with or without PDK1 inhibitor (flow cytometry); conditions: BX795 0.5 to 7.5 μM, compared to cells transduced without BX795, n=2, FIGS. 2B-2C
Protocol: NK cells were first activated in preparation of the transduction. One day 0, 0.5-1×10^6 NK cells per well were distributed in a 24-well plate.
Loaded Anti-Biotin MACSiBead particles (Miltenyi Biotech, Cat #130-094-483) for NK cell activation were resuspended thoroughly and were transferred to a suitable tube at the amount of 5 μL (5×10^5 loaded Anti-Biotin MACSiBead particles) per 1×10^6 NK cells. 100 μL culture medium was added to the loaded Anti-Biotin MACSiBead particles. The mixture was centrifuged at 300×g for 5 minutes so that the beads were washed prior to being added to the plated NK cells. […]
Lentiviral transduction was performed on day 5 or 6. […] The amount of virus needed for transducing cells was determined based on desired multiplicity of infection (MOI). […]
Cells were monitored as early as day 3-4 post transduction for surface CAR expression. The cell number of NK cells was determined. […] The CAR expression on NK cells was then measured using flow cytometry analysis.
To test whether PDK1 inhibitors can improve CAR transduction efficiency or surface CAR stability, primary NK cells were activated and transduced with a Antigen-1 CAR in the presence or absence of an PDK1 inhibitor, BX795 (InvivoGen, cat #tlrl-bx7), at concentrations varying from 0.5 to 7.5 μM. […] Surface CAR expression was monitored at regular intervals using an anti-myc tag AF647 antibody (Cell Signaling, Cat #2233, 1:200).

[2] = tested on: LDLR; experiment: LDLR expression of primary γδ T cells pre-treated with statin; conditions: different concentrations, compared to lentiviral vector only-transduced cells, FIGS. 10A-10B
Protocol: Next, the effect of pre-treatment with statin in lentiviral transduction of primary γδ T cells on LDLR expression was evaluated. Three primary γδ T cells samples from healthy donors were expanded with Zol for five days, pre-treated in the presence or absence of Rosuvastatin and Atorvastatin at different concentrations, as described above, and evaluated for LDLR expression.

[3] = tested on: primary γδ T cells; experiment: Frequency of Vγ9Vδ2 subset of primary γδ T cells pre-treated with statin (flow cytometry); conditions: different concentrations, compared to lentiviral vector only at 0 statin concentration, FIGS. 11A-11B
Protocol: Next, the effect of pre-treatment with statin in lentiviral transduction of primary γδ T cells on the frequency of Vγ9Vδ2 T cell subset within the γδ T cells was evaluated. Three primary γδ T cells samples from healthy donors were expanded with Zol for five days, pre-treated in the presence or absence of Rosuvastatin or Atorvastatin at different concentrations, as described above, and evaluated for Vγ9Vδ2 expression, using flow cytometry.

[4] = tested on: low-density lipoprotein receptor (LDLR); experiment: LDLR expression on primary NK cells after statin pre-treatment during activation; conditions: 5 μM during activation, DMSO negative control, n=3, FIG. 3A
Protocol: To test whether statins can improve CAR transduction efficiency or surface CAR stability, cells were pre-treated with 5 μM Rosuvastatin (Cayman Chemical, cat #12029) during the activation prior to the transduction. Then, activated primary NK cells were transduced with a Antigen-2 CAR at MOI of 5. Cells pre-treated with DMSO were included as a negative control.

[5] = tested on: primary NK cells; experiment: Antigen-2 CAR expression of primary NK cells transduced after statin pre-treatment; conditions: primary NK cells pre-treated with 5 μM, MOI of 5, FIG. 3B
Protocol: Lentiviral transduction was performed on day 5 or 6. NK cells were resuspended to determine if cell number had changed from day 0. Lentiviral particles were thawed on ice. Once thawed, lentiviral particles were taken out from ice and equilibrated to room temperature before being added to the activated NK cells. The amount of virus needed for transducing cells was determined based on desired multiplicity of infection (MOI). Once the NK cells were transduced with lentiviral particles, they were returned to the incubator at 37° C. and 5% CO2.
Cells were monitored as early as day 3-4 post transduction for surface CAR expression. The cell number of NK cells was determined. 1×10^5 NK cells were collected from each sample and transferred into wells of a microtiter plate. The cells in each well of the microtiter plate were washed twice with 200 μL FACS Buffer each time. The wells were stained with 100 μL staining buffer containing appropriate CAR detection antibodies. The plate was incubated for at least 30 minutes at 4° C. without light. The cells were then washed twice with 150 μL FACS Buffer each time and were centrifuged at 400×g for 4 minutes at room temperature. The CAR expression on NK cells was then measured using flow cytometry analysis. […]

Structure (SMILES)	surface CAR stability [1]	LDLR expression [2]	frequency of Vγ9Vδ2 cells [3]	LDLR expression on the cells [4]	Antigen-2 CAR expression [5]
O=C(NCCCNc1nc(Nc2cccc(NC(=O)N3CCCC3)c2)ncc1I)c1cccs1 [BX795]	improved surface CAR stability in a dose dependent manner				
CC(C)c1c(C(=O)Nc2ccccc2)c(-c2ccccc2)c(-c2ccc(F)cc2)n1CC[C@@H](O)C[C@@H](O)CC(=O)O [Atorvastatin]		increased the LDLR expression	did not change the frequency of Vγ9Vδ2 cells		
CC(C)c1nc(N(C)S(C)(=O)=O)nc(-c2ccc(F)cc2)c1/C=C/[C@@H](O)C[C@@H](O)CC(=O)O [Rosuvastatin]		increased the LDLR expression	did not change the frequency of Vγ9Vδ2 cells	increased levels of LDLR expression	increased Antigen-2 CAR expression
